Laboratory results reported in a melting point compilation (Tetko et al.; mined from patent text by program, amines drawn as free bases though some values may be those of a salt).

Row | melting point [°C] | SMILES
1 | 83 to 84 | COC(=O)C1COc2ccccc2C1 (configuration not stated)
2 | 124 to 128 | CC1CCN(C(=O)C(Cc2cc3c(N)nccc3s2)NS(=O)(=O)c2ccc(COC3CCOCC3)cc2)CC1 (configuration not stated)
3 | 149 | O=C(c1ccc(F)cc1)C1CCN(CCCn2c(=S)[nH]c3ccccc32)CC1
4 | 262 to 264 | COc1ccc(-c2nc(NC(C)=O)sc2-c2ccnc(NC(C)=O)c2)cc1
5 | 160 to 162 | CCn1c(=O)sc2cc(C(O)c3ccc([N+](=O)[O-])cc3)ccc21 (configuration not stated)
6 | 72 to 74.5 | Cc1c(Cl)c(C(F)(F)F)nn1-c1cc(OS(C)(=O)=O)c(Cl)cc1F
7 | 142 to 144 | COc1cc(OC)cc(C(=CC#N)c2ccc3ncccc3c2)c1
8 | 179 to 180 | CCOC(=O)CCc1cc(-c2cc3ccccc3c(=O)o2)ccc1O
9 | 42 | Cc1c(C(=O)c2ccccc2)cccc1[N+](=O)[O-]
10 | 253 to 254 | Cc1cc2ccc(=O)oc2cc1O
11 | 114 to 115 | CC(C)(C)c1cc(-c2ccc(F)cc2F)cc(C(=O)Nc2ccc(S(=O)(=O)C(F)(F)F)cc2Cl)c1O
12 | 132 | O=C(c1ccccc1)c1cc(O)c(O)c([N+](=O)[O-])c1
13 | 103 | CNCC(=O)NC(=O)OC(C)(C)C
14 | 158 to 159 | CC(C)(C)c1cc(C(c2cc(C(C)(C)C)c(O)c(C(C)(C)C)c2)c2ccco2)cc(C(C)(C)C)c1O
15 | 180 | CCNC(=O)CN(c1c(Cc2c(F)cccc2F)cccc1OC)S(=O)(=O)c1ccc(OC)c(OC)c1
16 | 60 to 65 | CS(=O)(=O)c1ccc(Cl)c(C(=O)Nc2ccc(-n3nc(C4CC4)cc3C3CC3)cc2)c1
17 | 45 to 47 | CNC(=O)[C@@H]1C[C@@H](OC)CN1C(=O)OCc1ccccc1
18 | 220 | COc1ccc2ccc(NC(=O)c3cccs3)nc2n1
19 | 131 | COC1=C(OC)C(=O)C(CCC(=O)N2CCC[C@H]2C(=O)O)=C(C)C1=O
20 | 220 to 225 | Cc1ccc(-c2cc(NC(=O)C3Cc4ccccc4C3)n[nH]2)cc1
21 | 195 to 202 | O=C1NCC(CN2C(=O)C3(COc4cc5c(cc43)OCO5)c3ccccc32)O1 (configuration not stated)
22 | 163 to 165 | Cc1oc(-c2ccccc2)nc1CNCc1ccc(C[C@@H](C(=O)O)n2cccc2)cc1
23 | 143 | CC(=O)N=c1[nH]c2ccccc2n1CCCN1CCN(C(c2ccccc2)c2ccccc2)CC1

Row | melting point [°C] | SMILES
24 | 229 to 232 | CC12CC(O)C3c4cc(O)ccc4CCC3C1CCC2O (configuration not stated)
25 | 46 to 48 | Cc1cc(CCCOc2c(C)cc(C#N)cc2C)on1
26 | 130 to 131 | COc1cccc(Sc2c(O)cc(-c3ccccc3)oc2=O)c1
27 | 109 to 110 | Cc1cc(C)cc(SCc2c(C(C)C)nc(C(C)C)c(CO)c2-c2ccc(F)cc2)c1
28 | 153 to 156 | CC(=O)[NH+]([O-])C[C@@H]1CN(c2ccc(N3CCN(S(=O)(=O)CC#N)CC3)c(F)c2)C(=O)O1 (some centres not stated)
29 | 161 to 162 | Cc1ccc(S(=O)(=O)CNCC(CS(=O)(=O)c2ccccc2Oc2ccc(OC(F)(F)F)cc2)N(O)C=O)cc1 (configuration not stated)
30 | 120 to 121 | CCOC(=O)c1ccccc1OCNC(=O)CCCCCNC(=O)OC(C)(C)C
31 | 44 to 49 | CC(CCc1ccccc1)NC1CCC(c2ccc(O)cc2)CC1 (racemic)
32 | 119 to 120 | CC(=O)CNC1(c2ccc(OCCCN(C)C3CCCCC3)cc2)Sc2ccccc2N(C)C1=O (configuration not stated)
33 | 231 to 232 | CCCOc1ccc(/C=C/C(=O)O)cc1-c1nc2c(c(C)nn2CCC)c(=O)[nH]1
34 | 107 to 114 | Nc1ccc(CC(NC(=O)CCCCCCCCCCCNC(=O)C(c2ccccc2)c2ccccc2)c2ccccc2)cc1 (configuration not stated)
35 | 299 to 301 | O=c1cc(-c2ccc(O)cc2)oc2c([N+](=O)[O-])cccc12
36 | 175 to 177 | O=C1NN(C(=O)Oc2ccc(Cl)cc2)C(c2ccccc2)C1c1ccccc1 (configuration not stated)
37 | 283 to 286 | NC(=O)CN1C(=O)COc2cc(F)c(N3C(=O)C4=C(CCCC4)C3=O)cc21
38 | 184 to 186 | O=c1cc2c(nn1-c1ccccc1)-c1cc(Cl)ccc1CC2
39 | 110 to 112 | CN(SC(Cl)(Cl)Cl)C(=O)OC(C(Oc1ccc(Cl)cc1)n1cncn1)C(C)(C)C (configuration not stated)
40 | 243 to 245 | CCCCc1ccc(NC(=O)Nc2ccc(S(N)(=O)=O)cc2)cc1
41 | 121 to 123 | COc1ccc(-c2cnc(C#N)nc2)cc1OC1CCCC1
42 | 163 to 165 | CC(=O)N(C(C)=O)c1c(C#N)cnn1-c1ccc(Cl)c(Cl)c1Cl
43 | 182 to 184 | CCCCc1ncc(/C=C(\Cc2cccs2)C(=O)O)n1Cc1cccc([N+](=O)[O-])c1
44 | 143 to 145 | C=CCc1ccc(C(NC(C)=O)C(=O)OC)cc1O (configuration not stated)
45 | 140 to 142 | O=c1[nH]c2ccccc2c(=O)n1CCCCN1CCC(OC(c2ccccc2)c2ccccc2)CC1
46 | 155 to 156 | Cc1ccc(C(=O)Cc2nnnn2C)c(N)c1

Row | melting point [°C] | SMILES
47 | 92 to 93 | CC(C)C(NC(=O)OCc1nccs1)C(=O)NC(Cc1ccccc1)C(O)C(Cc1ccccc1)NC(=O)C(NC(=O)OCc1nccs1)C(C)C (configuration not stated)
48 | 131 to 135 | COc1ccc(C(=O)Nc2ccc(F)cc2)cc1NS(=O)(=O)c1ccc(C#N)cc1
49 | 196 to 197 | NC(=O)c1cccc(O)c1F
50 | 200 to 202 | Cc1cccc2c1C(=O)N(C)CC(=O)N2
51 | 198 to 202 | COc1ccccc1N1CCN(CC(O)COc2ccccc2C(=O)O)CC1 (configuration not stated)
52 | 82 to 84 | CCOC(=O)C(C)(C)CCCOc1ccc(OCCn2c(=O)sc3cc(C(=O)c4ccccc4)ccc32)cc1
53 | 45 to 46.5 | COC(=O)CC(=O)C[C@@H]1CC(=O)N1
54 | 379 to 382 | CC12CCC(=O)NC1=CCC1C2CCC2(C)C(=NN)CCC12 (configuration not stated)
55 | 125 | COc1ccccc1CNc1ccc2cc(Nc3nccc(C)n3)ccc2n1
56 | 203 to 206 | O=C1C(=O)N2c3ccccc3Sc3cccc1c32
57 | 166 to 168 | BrCc1ccc(-c2ccc(CBr)cc2)cc1
58 | 205 to 207 | COCc1nc2c(N)nc3cc(CCCNS(C)(=O)=O)ccc3c2n1CC(C)(C)O
59 | 68.5 to 70.5 | CC(C)Oc1cccc(-c2nc3ncccc3o2)c1
60 | 286 to 288 | O=c1[nH]c2ccccc2c2cc(CO)nn12
61 | 90 | CCCCOc1cc(/C=C(\OCC)C(=O)O)ccc1OCCc1ccc(OS(=O)(=O)CCCC)cc1OC
62 | 238 to 241 | CCCCc1ncc(C=C2C(=O)Nc3ccc(Cl)cc32)n1Cc1ccc(C(=O)OC)cc1
63 | 213 to 215 | Cc1nc2c(OCc3ccccc3)cc(CO)cn2c1C
64 | 93 to 116 | CCn1c(C)c(C2(N(c3ccccc3)c3ccc(NC(C)=O)cc3)OC(=O)c3ccccc32)c2ccccc21 (configuration not stated)
65 | 173 to 175 | CCCc1nnc2ccc(-c3ccc(C(F)(F)F)cc3)nn12
66 | 88 to 92 | CCOC(Cc1ccc(OCc2nc3ccc(OC)cc3n2C)cc1)C(=O)OC (configuration not stated)
67 | 182 to 184 | Cn1nc(-c2cccc(C(F)(F)F)c2)c(Br)c1C(=O)O
68 | 135 to 136 | CC(=O)NC1(c2ccc(CN3CCN(c4cccc(F)n4)CC3)cc2)CC1
69 | 152 to 153 | Oc1ccc(-c2nc(-c3cccs3)c[nH]2)cc1Cl

Row | melting point [°C] | SMILES
70 | 201 to 203 | O=C1NC(Cc2cccs2)C(=O)NC1Cc1ccc(OCc2ccccc2)cn1 (configuration not stated)
71 | 182 to 185 | N=C(N)c1noc2cc([N+](=O)[O-])ccc12
72 | 129 to 130 | COc1ccc2ccccc2c1[N+](=O)[O-]
73 | 109 to 110 | C=C(CC(=O)O)c1ccc(-c2ccc(F)cc2F)cc1
74 | 213 to 214 | CS(=O)(=O)Nc1ccc(OCC2CCN(c3cc(N)ccn3)CC2)cc1
75 | 189 to 193 | CC(=O)Nc1ccc([N+](=O)[O-])c(N2CCN(C(C)=O)CC2)n1
76 | 249 to 250 | NC(=O)c1c(C(=O)O)cnn1-c1ccc(Cl)cc1
77 | 48 to 50 | CCCCN(CCCC)CCCCC(=O)c1ccc2c(c1)Cc1cc(C(=O)CCCCN(CCCC)CCCC)ccc1-2
78 | 172 | CCN(CC)C(=O)c1ccc(Cl)c(C2(C)C(=O)N(Cc3ccc(OC)cc3OC)c3ccccc32)c1 (configuration not stated)
79 | 149 to 150 | O=C(c1ccccc1Cl)c1ccccc1C#CCN1C(=O)c2ccccc2C1=O
80 | 86 | CCN(CC)C(=O)Cc1cc(-c2ccccc2)nc2ccccc12
81 | 228 | O=C(Nc1c(Cl)cncc1Cl)c1ccc(OC(F)F)c2oc3ccc(C(F)(F)F)cc3c12
82 | 168 | CC(=O)OC1CSC(Oc2cccnc2C(C)=O)C(OC(C)=O)C1OC(C)=O (configuration not stated)
83 | 122 to 125 | COC(=O)c1ccc(C(=O)c2ccc(CCl)cc2)cc1
84 | 119 to 120 | CCCN(CCC)C(=O)C(CO)Nc1nc(-c2ccccc2)nc2c1CCCC2 (configuration not stated)
85 | 320 | CCOC(=O)c1cnc2cc(NC(C)=O)c(F)cc2c1O
86 | 146 to 148 | CC(O)(CF)C(=O)Nc1ccc(C(=O)c2ccccc2)cc1 (configuration not stated)
87 | 298 to 305 | Cc1cscc1NC(=S)Nc1cccc(Cl)c1N
88 | 107 to 114 | C#CCn1c(=O)n(CC=C)c(=O)n(-c2cc(N3C(=O)C4=C(CCCC4)C3=O)c(F)cc2Cl)c1=O
89 | 195 to 196 | CCC(=O)CNC(=O)CSc1cnc(NC(C)=O)s1

Row | SMILES | melting point [°C]
90 | O=C1c2c(Cl)cccc2-n2cncc2[C@@H]2CCN12 | 207 to 208
91 | O=Cc1ccc(=O)[nH]c1 | 222 to 224
92 | O=C(O)C(Cl)C(=O)CCl (configuration not stated) | 53 to 54
